# Experiments:
# [1] = (§1) The drug is tested on Z-030 corresponding to mouse gut metagenome with ENA study accession number: PRJEB37062 and ENA sample accession number: ERS12561829 for biotransformation under anaerobic condition. The drug concentrations were measured over 9 timepoints collected between 0 and 24 hours of incubation by liquid-chromatography-coupled mass spectrometry (LC–MS); conditions: 2 µM
# [2] = as §1, with “Z-029” for “Z-030”, “rat” for “mouse”, “ERS12561828” for “ERS12561829”; conditions: 2 µM
# [3] = as §1, with “Z-027” for “Z-030”, “to” for “to mouse gut”, “ERS12561826” for “ERS12561829”; conditions: 2 µM
# [4] = as §1, with “Z-018” for “Z-030”, “pig” for “mouse”, “ERS12561817” for “ERS12561829”; conditions: 2 µM
# [5] = as §1, with “Z-014” for “Z-030”, “rat” for “mouse”, “ERS12561814” for “ERS12561829”; conditions: 2 µM
# [6] = as §1, with “Z-009” for “Z-030”, “pig” for “mouse”, “ERS12561809” for “ERS12561829”; conditions: 2 µM
# [7] = as §1, with “Z-008” for “Z-030”, “to” for “to mouse gut”, “ERS12561808” for “ERS12561829”; conditions: 2 µM
# [8] = as §1, with “Z-007” for “Z-030”, “rat” for “mouse”, “ERS12561807” for “ERS12561829”; conditions: 2 µM
# [9] = as §1, with “Z-003” for “Z-030”, “pig” for “mouse”, “ERS12561803” for “ERS12561829”; conditions: 2 µM
# [10] = as §1, with “Z-001” for “Z-030”, “ERS12561801” for “ERS12561829”; conditions: 2 µM
# [11] = as §1, with “WLS-370” for “Z-030”, “human” for “mouse”, “ERS12561793” for “ERS12561829”; conditions: 2 µM
# [12] = as §1, with “WLS-098” for “Z-030”, “human” for “mouse”, “ERS12561754” for “ERS12561829”; conditions: 2 µM
# [13] = as §1, with “WLS-082” for “Z-030”, “human” for “mouse”, “ERS12561751” for “ERS12561829”; conditions: 2 µM
# [14] = as §1, with “WLS-073” for “Z-030”, “human” for “mouse”, “ERS12561749” for “ERS12561829”; conditions: 2 µM
# [15] = as §1, with “WLS-069” for “Z-030”, “human” for “mouse”, “ERS12561748” for “ERS12561829”; conditions: 2 µM
# [16] = human gut metagenome, 24 h, 2 µM
# [17] = human gut metagenome, 24 h, 2 µM; remark: listed apart in the source
# [18] = human gut metagenome, 24 h, 2 µM; remark: listed apart in the source
# [19] = human gut metagenome, 24 h, 2 µM; remark: listed apart in the source
# [20] = human gut metagenome, 24 h, 2 µM; remark: listed apart in the source
# Note: call rule not given here.
Structure (SMILES),Bacterial Biotransformation [1],Bacterial Biotransformation [2],Bacterial Biotransformation [3],Bacterial Biotransformation [4],Bacterial Biotransformation [5],Bacterial Biotransformation [6],Bacterial Biotransformation [7],Bacterial Biotransformation [8],Bacterial Biotransformation [9],Bacterial Biotransformation [10],Bacterial Biotransformation [11],Bacterial Biotransformation [12],Bacterial Biotransformation [13],Bacterial Biotransformation [14],Bacterial Biotransformation [15],Bacterial Biotransformation [16],Bacterial Biotransformation [17],Bacterial Biotransformation [18],Bacterial Biotransformation [19],Bacterial Biotransformation [20]
COc1cc(NC(C)CCCN)c2ncccc2c1.O=P(O)(O)O.O=P(O)(O)O (stereo not given) [PRIMAQUINE PHOSPHATE],Compound NOT metabolized,Compound NOT metabolized,Compound NOT metabolized,Compound NOT metabolized,Compound NOT metabolized,Compound NOT metabolized,Compound NOT metabolized,Compound NOT metabolized,Compound NOT metabolized,Compound NOT metabolized,Compound NOT metabolized,Compound metabolized,Compound metabolized,Compound NOT metabolized,Compound metabolized,Compound NOT metabolized,Compound NOT metabolized,Compound NOT metabolized,Compound metabolized,Compound metabolized
O=P1(N(CCCl)CCCl)NCCCO1 (stereo not given) [CYCLOPHOSPHAMIDE ANHYDROUS],Compound NOT metabolized,Compound NOT metabolized,Compound NOT metabolized,Compound NOT metabolized,Compound NOT metabolized,Compound metabolized,Compound NOT metabolized,Compound NOT metabolized,Compound NOT metabolized,Compound NOT metabolized,Compound NOT metabolized,Compound metabolized,Compound metabolized,Compound NOT metabolized,Compound metabolized,Compound NOT metabolized,Compound NOT metabolized,Compound metabolized,Compound metabolized,Compound metabolized
CN(C)CCOC(C)(c1ccccc1)c1ccccn1.O=C(O)CCC(=O)O (stereo not given) [DOXYLAMINE SUCCINATE],Compound NOT metabolized,Compound NOT metabolized,Compound NOT metabolized,Compound NOT metabolized,Compound NOT metabolized,Compound NOT metabolized,Compound NOT metabolized,Compound NOT metabolized,Compound NOT metabolized,Compound NOT metabolized,Compound NOT metabolized,Compound NOT metabolized,Compound NOT metabolized,Compound NOT metabolized,Compound NOT metabolized,Compound NOT metabolized,Compound NOT metabolized,Compound NOT metabolized,Compound NOT metabolized,Compound NOT metabolized
CN1CCN2c3ccccc3Cc3ccccc3C2C1 (stereo not given) [MIANSERIN],Compound NOT metabolized,Compound NOT metabolized,Compound NOT metabolized,Compound metabolized,Compound NOT metabolized,Compound metabolized,Compound NOT metabolized,Compound NOT metabolized,Compound metabolized,Compound NOT metabolized,Compound NOT metabolized,Compound metabolized,Compound NOT metabolized,Compound NOT metabolized,Compound metabolized,Compound NOT metabolized,Compound NOT metabolized,Compound metabolized,Compound metabolized,Compound metabolized

# Source: ChEMBL document CHEMBL5724914, “Linking interpersonal differences in gut microbiota composition and drug biotransformation activity” (2024)
